The record followed here is US8871753B2, “Macrocyclic compounds and their use as kinase inhibitors” (Incyte Corporation, priority 2008, dated 2014).

Assay type in all cases: biochemical
For test [1], the target named is T1, human JAK1 (a.a. 837-1142) (Homo sapiens, UniProt P23458).
T1 construct: human JAK1 (a.a. 837-1142); His tag (N); made in house; host or cells: insect cells (baculovirus)
The test is described as follows: In vitro JAK kinase assay (HTRF, phosphorylation of a biotinylated peptide), JAK1. The conditions noted are these: read-out: JAK1 IC50. Put shortly: (§1)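 Phosphorylation of a biotinylated peptide by the JAK kinase domain, detected by HTRF with Eu-Py20 and SA-APC. ATP was 90 μM for JAK1, 30 μM for JAK2 and 3 μM for JAK3. Reactions ran 1 h at room temperature and were stopped with EDTA, followed by 40 min antibody binding.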
On the technique in general: In TR-FRET formats the signal depends on donor and acceptor labels being close together.

In test [2] the target is T2, human JAK2 (a.a. 828-1132) (Homo sapiens, UniProt O60674).
T2 construct: JAK2 (a.a. 828-1132); His tag (N); made in house; host or cells: insect cells (baculovirus)
T2 sequence (O60674 828-1132): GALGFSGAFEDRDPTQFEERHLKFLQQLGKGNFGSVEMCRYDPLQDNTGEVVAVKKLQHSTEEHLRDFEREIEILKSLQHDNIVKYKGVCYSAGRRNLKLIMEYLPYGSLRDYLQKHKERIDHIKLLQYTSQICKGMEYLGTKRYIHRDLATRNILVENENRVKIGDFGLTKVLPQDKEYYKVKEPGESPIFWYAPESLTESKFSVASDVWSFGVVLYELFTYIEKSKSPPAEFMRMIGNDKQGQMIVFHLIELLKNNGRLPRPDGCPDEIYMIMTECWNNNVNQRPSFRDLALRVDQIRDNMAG
The test is described as follows: In vitro JAK kinase assay (HTRF, phosphorylation of a biotinylated peptide), JAK2. Put shortly: as §1

Test [3] has as its target T3, human JAK3 (a.a. 781-1124) (Homo sapiens, UniProt P52333).
T3 construct: JAK3 (a.a. 781-1124); His tag (N); made in house; host or cells: insect cells (baculovirus)
Nature of the test: In vitro JAK kinase assay (HTRF, phosphorylation of a biotinylated peptide), JAK3. Put shortly: as §1

Another test addresses TYK2 (Homo sapiens, UniProt P29597). Nature of the test: TYK2 kinase inhibition (Table A1).
Test [4] concerns the target T4, Recombinant Human Anaplastic Lymphoma Kinase (Homo sapiens, UniProt Q9UM73).
T4 construct: purchased Invitrogen, Carlsbad, Calif
The test is described as follows: ALK HTRF kinase assay. Put shortly:
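Compounds were incubated with recombinant human ALK and a biotin-tagged peptide substrate. Product was captured with streptavidin-APC and probed with a europium anti-phosphotyrosine antibody, and plates were read for time-resolved fluorescence. Dose-response data were fitted to derive IC50.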

Setting [5] is: percentage inhibition of the example compound at a concentration of 500 nM or 1 mM (not specified which).
[6] abbreviates: method AA1 (90 μM ATP) or AA2 (1000 μM ATP), not stated per value.
Setting [7] is: method AA1 (30 μM ATP) or AA2 (1000 μM ATP), not stated per value.
Setting [8] is: method AA1 (3 μM ATP) or AA2 (1000 μM ATP), not stated per value.
[9] abbreviates: compound at 500 nM or 1 mM, 90 μM ATP.
Setting [10] is: Table B1, cells without percent sign.
Where [11] appears, read: compound at a concentration of 500 nM or 1 mM (not specified), cells shown as percentage.

SMILES strings stand for the structures. pIC50: −log10 of the molar value. Where a name gives a salt, the structure may show the parent alone. Read-outs that look alike come from different tables or passages of the source.

T1 sequence (P23458 849-1154): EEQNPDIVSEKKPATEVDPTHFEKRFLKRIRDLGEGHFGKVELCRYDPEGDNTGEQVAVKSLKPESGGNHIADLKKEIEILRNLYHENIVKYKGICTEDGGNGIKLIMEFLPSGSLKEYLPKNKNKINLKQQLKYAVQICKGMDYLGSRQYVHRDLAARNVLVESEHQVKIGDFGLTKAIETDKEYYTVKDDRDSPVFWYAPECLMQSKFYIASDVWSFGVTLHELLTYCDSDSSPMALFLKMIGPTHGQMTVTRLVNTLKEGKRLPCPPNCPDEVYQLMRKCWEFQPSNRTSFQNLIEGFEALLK
TYK2, sequence (P29597 whole entry): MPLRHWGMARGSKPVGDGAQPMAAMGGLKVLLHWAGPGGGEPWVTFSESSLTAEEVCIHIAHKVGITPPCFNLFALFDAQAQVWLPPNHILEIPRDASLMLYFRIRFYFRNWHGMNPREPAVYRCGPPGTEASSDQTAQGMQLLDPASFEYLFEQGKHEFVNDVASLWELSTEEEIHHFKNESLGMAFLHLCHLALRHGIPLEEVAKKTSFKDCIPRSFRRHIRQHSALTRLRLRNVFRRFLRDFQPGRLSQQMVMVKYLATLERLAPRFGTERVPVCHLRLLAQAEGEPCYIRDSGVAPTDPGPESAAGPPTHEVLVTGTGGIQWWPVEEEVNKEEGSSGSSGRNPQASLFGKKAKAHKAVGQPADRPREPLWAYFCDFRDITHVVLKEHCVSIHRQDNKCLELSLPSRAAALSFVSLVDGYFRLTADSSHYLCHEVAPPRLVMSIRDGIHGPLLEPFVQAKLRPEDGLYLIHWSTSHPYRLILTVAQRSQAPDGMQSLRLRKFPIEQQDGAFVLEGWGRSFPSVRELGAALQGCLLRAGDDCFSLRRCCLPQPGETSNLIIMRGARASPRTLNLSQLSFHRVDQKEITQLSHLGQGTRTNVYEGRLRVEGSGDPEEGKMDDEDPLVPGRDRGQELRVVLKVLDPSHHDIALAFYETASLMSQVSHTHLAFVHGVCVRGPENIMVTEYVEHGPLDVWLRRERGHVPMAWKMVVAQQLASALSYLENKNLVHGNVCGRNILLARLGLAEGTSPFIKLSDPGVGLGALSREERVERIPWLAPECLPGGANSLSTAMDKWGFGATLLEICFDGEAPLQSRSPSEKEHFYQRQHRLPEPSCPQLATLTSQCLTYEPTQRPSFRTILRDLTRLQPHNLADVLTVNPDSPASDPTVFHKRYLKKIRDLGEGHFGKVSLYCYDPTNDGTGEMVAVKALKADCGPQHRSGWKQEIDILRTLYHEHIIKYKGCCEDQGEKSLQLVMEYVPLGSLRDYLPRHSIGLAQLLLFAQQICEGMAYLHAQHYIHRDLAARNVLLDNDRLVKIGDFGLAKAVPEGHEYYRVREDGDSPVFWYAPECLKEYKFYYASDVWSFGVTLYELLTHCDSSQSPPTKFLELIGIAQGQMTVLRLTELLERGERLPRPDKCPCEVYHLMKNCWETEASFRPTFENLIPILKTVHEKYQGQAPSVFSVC
T4 sequence (Q9UM73 19-1620): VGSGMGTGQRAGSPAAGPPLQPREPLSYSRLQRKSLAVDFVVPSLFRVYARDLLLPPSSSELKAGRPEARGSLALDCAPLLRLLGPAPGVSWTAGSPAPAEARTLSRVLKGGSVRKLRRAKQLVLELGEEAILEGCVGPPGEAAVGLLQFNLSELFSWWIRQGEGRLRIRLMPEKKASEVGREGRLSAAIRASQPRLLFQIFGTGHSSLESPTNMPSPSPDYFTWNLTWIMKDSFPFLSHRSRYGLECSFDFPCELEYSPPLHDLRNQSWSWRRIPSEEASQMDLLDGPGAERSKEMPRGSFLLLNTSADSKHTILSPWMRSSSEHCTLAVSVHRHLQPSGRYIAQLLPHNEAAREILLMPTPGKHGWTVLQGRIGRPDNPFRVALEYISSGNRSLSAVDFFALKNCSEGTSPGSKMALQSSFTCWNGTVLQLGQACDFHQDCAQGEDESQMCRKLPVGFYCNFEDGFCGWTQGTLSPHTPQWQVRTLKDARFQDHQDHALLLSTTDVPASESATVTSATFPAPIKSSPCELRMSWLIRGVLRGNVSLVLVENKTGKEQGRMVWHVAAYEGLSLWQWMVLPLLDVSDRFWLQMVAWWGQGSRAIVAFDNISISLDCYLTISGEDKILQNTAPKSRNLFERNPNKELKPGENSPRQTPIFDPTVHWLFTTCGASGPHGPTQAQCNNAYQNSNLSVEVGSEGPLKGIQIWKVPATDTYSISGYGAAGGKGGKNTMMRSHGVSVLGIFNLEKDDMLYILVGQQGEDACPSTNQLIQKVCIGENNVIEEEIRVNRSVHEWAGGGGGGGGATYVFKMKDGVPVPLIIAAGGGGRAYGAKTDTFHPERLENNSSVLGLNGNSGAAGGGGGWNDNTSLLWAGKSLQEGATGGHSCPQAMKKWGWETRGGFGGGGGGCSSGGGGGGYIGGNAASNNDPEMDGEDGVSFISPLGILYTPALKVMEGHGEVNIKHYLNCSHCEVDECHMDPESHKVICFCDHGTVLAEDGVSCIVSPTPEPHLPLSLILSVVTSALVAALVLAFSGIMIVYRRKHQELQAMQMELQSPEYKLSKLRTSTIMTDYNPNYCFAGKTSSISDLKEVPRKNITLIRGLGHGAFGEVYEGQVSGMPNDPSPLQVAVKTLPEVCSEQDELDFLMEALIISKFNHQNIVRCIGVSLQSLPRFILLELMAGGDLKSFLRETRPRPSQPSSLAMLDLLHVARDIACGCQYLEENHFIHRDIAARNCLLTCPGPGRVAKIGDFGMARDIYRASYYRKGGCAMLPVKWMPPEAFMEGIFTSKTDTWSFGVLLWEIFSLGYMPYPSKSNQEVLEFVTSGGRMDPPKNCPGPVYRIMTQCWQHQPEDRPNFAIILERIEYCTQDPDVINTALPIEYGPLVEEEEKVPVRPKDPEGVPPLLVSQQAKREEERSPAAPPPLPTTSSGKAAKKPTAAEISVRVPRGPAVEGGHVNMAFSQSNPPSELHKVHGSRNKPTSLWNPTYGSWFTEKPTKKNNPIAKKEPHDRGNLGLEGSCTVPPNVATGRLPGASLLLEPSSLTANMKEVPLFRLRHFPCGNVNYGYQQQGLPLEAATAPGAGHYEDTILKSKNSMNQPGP
T3 sequence (P52333 781-1124): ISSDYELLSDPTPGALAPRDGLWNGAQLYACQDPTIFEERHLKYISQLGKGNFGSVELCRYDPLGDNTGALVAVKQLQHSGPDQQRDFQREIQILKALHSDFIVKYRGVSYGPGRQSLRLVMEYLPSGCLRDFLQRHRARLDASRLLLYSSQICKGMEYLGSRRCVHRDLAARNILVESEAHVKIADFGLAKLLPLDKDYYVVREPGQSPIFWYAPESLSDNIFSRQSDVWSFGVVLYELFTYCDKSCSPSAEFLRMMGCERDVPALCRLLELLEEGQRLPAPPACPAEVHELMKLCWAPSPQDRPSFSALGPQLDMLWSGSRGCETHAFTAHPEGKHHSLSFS

In the case of `O=C(NCCNS(=O)(=O)c1ccc(Cl)nc1)Nc1ccc2cc1CCc1cccc(c1)Nc1ncc(Cl)c(n1)N2` [Example B331, 6-Chloro-N-{2-[({[6-chloro-2,4,8,22-tetraazatetracyclo[14.3.1.1(3,7).1(9,13)]docosa-1(20),3(22),4,6,9(21),10,12,16,18-nonaen-12-yl]amino}carbonyl)amino]ethyl}pyridine-3-sulfonamide trifluoroacetate], the pIC50 (in general, −log10 of the IC50, conventionally taken in molar units) was 8.70 in test [1] (Table B1), 8.44 in test [2] (Table B1), 8.57 in test [3] (Table B1) and 7.80 on TYK2 (Table B1). For the same compound, in test [4] (setting [5]), the “ALK % of inhibition at a concentration of 500 nM or 1 mM” value (shortened to “ALK % of inhibition”) was determined as 27%.
Take `CC(=O)N1CCN(C(=O)COc2ccc3cc2CCc2cccc(c2)Nc2ncc(Cl)c(n2)N3)CC1` [Example A20, 12-[2-(4-Acetylpiperazin-1-yl)-2-oxoethoxy]-6-chloro-2,4,8,22-tetraazatetracyclo[14.3.1.1(3,7).1(9,13)]docosa-1(20),3(22),4,6,9(21),10,12,16,18-nonaene trifluoroacetate]: the pIC50 in test [1] (setting [6]) was 7.92; in test [2] (setting [7]), 8.09; in test [3] (setting [8]), 7.11; against TYK2, 7.57. In addition, the “ALK % of inhibition” value in test [4] (setting [9]) is listed as 17%.
Take `O=C(Nc1cccc(Cl)c1)Nc1ccc2cc1CCc1cccc(c1)Nc1ncc(Cl)c(n1)N2` [Example B85, N-(3-Chlorophenyl)-N′-[6-chloro-2,4,8,22-tetraazatetracyclo[14.3.1.1(3,7).1(9,13)]docosa-1(20),3(22),4,6,9(21),10,12,16,18-nonaen-12-yl]urea trifluoroacetate]: the pIC50 in test [1] (Table B1) is 8.85; in test [2] (Table B1), 8.57; in test [3] (Table B1), 7.41; against TYK2 (Table B1), 8.66; in test [4] (setting [10]) it was below 6.00.
In the case of `Cc1cc(C(=O)Nc2ccc3cc2CCc2cccc(c2)Nc2ncc(Cl)c(n2)N3)no1` [Example B68, N-[6-Chloro-2,4,8,22-tetraazatetracyclo[14.3.1.1(3,7).1(9,13)]docosa-1(20), 3(22),4,6,9(21),10,12,16,18-nonaen-12-yl]-5-methylisoxazole-3-carboxamide trifluoroacetate], the pIC50 in test [1] (Table B1) was 8.85; in test [2] (Table B1), 8.64; in test [3] (Table B1), 7.72; at TYK2 (Table B1) it was 8.44. In addition, in test [4] (setting [11]), the “ALK % of inhibition” value is 19%.
On to `Cn1cccc1C(=O)Nc1ccc2cc1CCc1cccc(c1)Nc1ncc(Cl)c(n1)N2` [Example B50, N-[6-Chloro-2,4,8,22-tetraazatetracyclo[14.3.1.1(3,7).1(9,13)]docosa-1(20), 3(22),4,6,9(21),10,12,16,18-nonaen-12-yl]-1-methyl-1H-pyrrole-2-carboxamide trifluoroacetate], for which the pIC50 in test [1] (Table B1) was 9.36; in test [2] (Table B1), 9.55; in test [3] (Table B1), 8.60; against TYK2 (Table B1), 8.64; in test [4] (setting [10]), 6.64.
On to `N#Cc1ccc(C(=O)N2CCC(C(=O)Nc3ccc4cc3CCc3cccc(c3)Nc3ncc(Cl)c(n3)N4)CC2)cc1` [Example A33, N-[6-Chloro-2,4,8,22-tetraazatetracyclo[14.3.1.1(3,7).1(9,13)]docosa-1(20), 3(22),4,6,9(21),10,12,16,18-nonaen-12-yl]-1-(4-cyanobenzoyl)piperidine-4-carboxamide trifluoroacetate], for which the pIC50 in test [1] (setting [6]) was 7.52; in test [2] (setting [7]), 7.42; in test [3] (setting [8]) it was 6.99; on TYK2, 7.12. In addition, the “ALK % of inhibition” value in test [4] (setting [9]) stood at 26%.
Regarding `Cn1cncc1C(=O)Nc1ccc2cc1CCc1cccc(c1)Nc1ncc(Cl)c(n1)N2` [Example B51, N-[6-Chloro-2,4,8,22-tetraazatetracyclo[14.3.1.1(3,7).1(9,13)]docosa-1(20), 3(22),4,6,9(21),10,12,16,18-nonaen-12-yl]-1-methyl-1H-imidazole-5-carboxamide bis(trifluoroacetate)], the pIC50 in test [1] (Table B1) was 8.57; in test [2] (Table B1) it was 9.04; in test [3] (Table B1), 8.33; against TYK2 (Table B1) it was 8.48; in test [4] (setting [10]), 6.52.
As to `CC(CO)NC(=O)Nc1ccc2cc1CCc1cccc(c1)Nc1ncc(Cl)c(n1)N2` (stereo not drawn) [Example B242, N-[6-Chloro-2,4,8,22-tetraazatetracyclo[14.3.1.1(3,7).1(9,13)]docosa-1(20),3(22),4,6,9(21),10,12,16,18-nonaen-12-yl]-N′-(2-hydroxy-1-methylethyl)urea trifluoroacetate], the pIC50 was 8.55 in test [1] (Table B1), 8.70 in test [2] (Table B1), 7.92 in test [3] (Table B1) and 8.16 against TYK2 (Table B1). Besides, the “ALK % of inhibition” value in test [4] (setting [11]) is reported as 16%.
For the compound `CC(=O)N1CCC(CN(C)Cc2ccc3cc2CCc2cncc(c2)Nc2ncc(Cl)c(n2)N3)CC1` [Example B346, 1-(1-Acetylpiperidin-4-yl)-N-{[6-chloro-2,4,8,18,22-pentaazatetracyclo[14.3.1.1(3,7).1(9,13)]docosa-1(20),3(22),4,6,9(21),10,12,16,18-nonaen-12-yl]methyl}-N-methylmethanamine tris(trifluoroacetate)], the pIC50 in test [1] (Table B1) was 7.89; in test [2] (Table B1), 7.04; in test [3] (Table B1), below 6.40; against TYK2 (Table B1), below 6.40. Also, the “ALK % of inhibition” value in test [4] (setting [5]) is given as 38%.
For the compound `O=C(NCc1ccccc1)N1CCN(c2ccc(-c3cc4cc(c3)Nc3ncc(Cl)c(n3)Nc3cccc(c3)OCC4)cn2)CC1` [Example D48, bis(trifluoroacetate)], the pIC50 in test [1] (Table D1) is 8.31; in test [2] (Table D1), 8.68; in test [3] (Table D1) it was 7.57; on TYK2 (Table D1), 8.08; in test [4] (Table D1, 90 μM ATP), below 6.00.
As for `O=C(CC1CCN(C(=O)Nc2ccccc2)CC1)Nc1ccc2cc1CCc1cccc(c1)Nc1ncc(Cl)c(n1)N2` [Example A58, 4-(2-{[6-Chloro-2,4,8,22-tetraazatetracyclo[14.3.1.1(3,7).1(9,13)]docosa-1(20),3(22),4,6,9(21),10,12,16,18-nonaen-12-yl]amino}-2-oxoethyl)-N-phenylpiperidine-1-carboxamide trifluoroacetate], the pIC50 was 9.70 in test [1] (setting [6]), 8.96 in test [2] (setting [7]), 7.66 in test [3] (setting [8]) and 8.00 against TYK2. Moreover, the “ALK % of inhibition” value in test [4] (setting [9]) came to 38%.
`CC(C)(C)OC(=O)N[C@@H]1CCN(C(=O)Nc2ccc3cc2CCc2cccc(c2)Nc2ncc(Cl)c(n2)N3)C1` [Example B236, tert-Butyl [(3R)-1-({[6-chloro-2,4,8,22-tetraazatetracyclo[14.3.1.1(3,7).1(9,13)]docosa-1(20),3(22),4,6,9(21),10,12,16,18-nonaen-12-yl]amino}carbonyl)pyrrolidin-3-yl]carbamate]: the pIC50 in test [1] (Table B1) is 8.77; in test [2] (Table B1), 8.77; in test [3] (Table B1), 8.01; at TYK2 (Table B1), 8.21. The “ALK % of inhibition” value in test [4] (setting [11]) is given as 29%.
On to `N#Cc1ccc2cc1OCCSc1cccc(c1)Nc1nc(ncc1Cl)N2` [Example D81, 6-Chloro-17-oxa-14-thia-2,4,8,24-tetraazatetracyclo[16.3.1.1(3,7).1(9,13)]tetracosa-1(22),3(24),4,6,9(23),10,12,18,20-nonaene-19-carbonitrile trifluoroacetate], for which the pIC50 in test [1] (Table D1) is 7.92; in test [2] (Table D1), 7.80; in test [3] (Table D1), 6.89; at TYK2 (Table D1), 7.28; in test [4] (Table D1, 90 μM ATP), below 5.00.
Consider `O=C1Cc2cccc(c2)Nc2ncc(Cl)c(n2)Nc2cccc(c2)N1` [Example C10, 6-Chloro-2,4,8,14,23-pentaazatetracyclo[15.3.1.1(3,7).1(9,13)]tricosa-1(21),3(23),4,6,9(22),10,12,17,19-nonaen-15-one trifluoroacetate], for which the pIC50 in test [1] was 6.81; in test [2], 6.52; in test [3], below 6.00; on TYK2 it was 7.22; in test [4], below 5.00.
Turning to `O=C(CC1CCN(C(=O)Nc2cccnc2)CC1)Nc1ccc2cc1CCc1cncc(c1)Nc1ncc(Cl)c(n1)N2` [Example A144, 4-(2-{[6-Chloro-2,4,8,18,22-pentaazatetracyclo[14.3.1.1(3,7).1(9,13)]docosa-1(20),3(22),4,6,9(21),10,12,16,18-nonaen-12-yl]amino}-2-oxoethyl)-N-pyridin-3-ylpiperidine-1-carboxamide bis(trifluoroacetate)], the pIC50 in test [1] (setting [6]) was 8.92; in test [2] (setting [7]), 8.19; in test [3] (setting [8]) it was below 7.00; against TYK2 it was 7.96. Further, in test [4] (setting [9]), the “ALK % of inhibition” value is reported as 35%.
